Test results published in patent US6051605A, “Method of treating psychosis and schizophrenia” (priority 1999, dated 2000).
Counter-ions that a name gives are not always drawn.

What follows are compounds tested against T1, human recombinant dopamine D4.2 receptor (Homo sapiens, UniProt P21917, DEL265-296) (assay: Receptor binding assay, D4.2 dopamine receptor ([3H]spiperone competition)).
T1 construct: expressed in transfected cells; membranes
T1 sequence (P21917 with tags, fused parts or gaps DEL265-296): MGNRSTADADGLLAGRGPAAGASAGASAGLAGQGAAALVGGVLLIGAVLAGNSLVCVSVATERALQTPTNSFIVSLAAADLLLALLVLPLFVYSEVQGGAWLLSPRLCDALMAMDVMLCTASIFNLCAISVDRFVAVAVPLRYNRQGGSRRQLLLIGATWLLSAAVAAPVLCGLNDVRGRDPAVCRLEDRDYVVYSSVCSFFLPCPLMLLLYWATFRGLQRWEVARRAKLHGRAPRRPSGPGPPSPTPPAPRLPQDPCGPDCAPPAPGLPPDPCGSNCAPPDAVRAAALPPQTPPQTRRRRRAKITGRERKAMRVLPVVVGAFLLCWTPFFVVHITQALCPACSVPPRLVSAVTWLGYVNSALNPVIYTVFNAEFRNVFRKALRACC

Ki [nM] | Structure (SMILES)
1330 | COc1ccc(OCCCNCCCOc2ccc(OC)cc2)cc1 [Example 1q, Bis[3-(4-methoxy-phenoxy)-propyl]-amine hydrochloride]
0.2 | Cc1ccc(OCCNCCCOc2ccccc2)cc1 [Example 2, (3-Phenoxy-propyl)-(2-p-tolyloxy-ethyl)-amine hydrochloride]
4.4 | O=[N+]([O-])c1ccc(OCCNCCCOc2ccccc2)cc1 [Example 2a, [2-(4-Nitro-phenoxy)-ethyl]-(3-phenoxy-propyl)-amine hydrochloride]
20.9 | CC(C)(C)c1ccc(OCCNCCCOc2ccccc2)cc1 [Example 2b, [2-(4-tert-Butyl-phenoxy)-ethyl]-(3-phenoxy-propyl)-amine hydrochloride]
11.9 | CCOc1ccc(OCCNCCCOc2ccccc2)cc1 [Example 2c, [2-(4-Ethoxy-phenoxy)-ethyl]-(3-phenoxy-propyl)-amine hydrochloride]
383 | c1ccc(OCCCNCCOc2ccc(-c3ccccc3)cc2)cc1 [Example 2e, [2-(Biphenyl-4-yloxy)-ethyl]-(3-phenoxy-propyl)-amine hydrochloride]
11.4 | Cc1ccc(OCCCNCCOc2ccc(C)cc2)cc1 [Example 3, (2-p-Tolyloxy-ethyl)-(3-p-tolyloxy-propyl)-amine hydrochloride]
26.9 | Cc1ccc(OCCNCCCOc2ccc(Br)cc2)cc1 [Example 3b, [3-(4-Bromo-phenoxy)-propyl]-(2-p-tolyloxy-ethyl)-amine hydrochloride]
5.6 | Cc1ccc(OCCCNCCOc2ccc(Cl)cc2)cc1 [Example 3e, [2-(4-Chloro-phenoxy)-ethyl]-(3-p-tolyloxy-propyl)-amine hydrochloride]
2.7 | Cc1ccc(OCCCNCCOc2ccccc2)cc1 [Example 3f, (2-Phenoxy-ethyl)-(3-p-tolyloxy-propyl)-amine hydrochloride]
37.8 | Clc1ccc(OCCNCCCOc2ccc(Br)cc2)cc1 [Example 3g, [3-(4-Bromo-phenoxy)-propyl]-[2-(4-chloro-phenoxy)-ethyl]-amine hydrochloride]
1.2 | Fc1ccc(OCCCNCCOc2ccccc2)cc1 [Example 4, [3-(4-Fluoro-phenoxy)-propyl]-(2-phenoxy-ethyl)-amine hydrochloride]
45.8 | Brc1ccc(OCCCNCCCOc2ccc(Br)cc2)cc1 [Example 4a, Bis-[3-(4-bromo-phenoxy)-propyl]-amine hydrochloride]
136 | Cc1ccc(OCCCNCCCOc2ccc(C)cc2)cc1 [Example 4b, Bis(3-p-tolyloxy-propyl)-amine hydrochloride]
0.96 | Cc1ccc(OCCNCCCOc2ccc(F)cc2)cc1 [Example 4c, [3-(4-Fluoro-phenoxy)-propyl]-(2-p-tolyloxy-ethyl)-amine hydrochloride]
30 | Cc1ccc(SCCNCCCOc2ccccc2)cc1 [Example 4d, (3-Phenoxy-propyl)-(2-p-tolylsulfanyl-ethyl)-amine hydrochloride]

Ki [nM] | Structure (SMILES)
33.1 | Clc1ccc(SCCNCCCOc2ccccc2)cc1 [Example 4e, [2-(4-Chloro-phenylsulfanyl)-ethyl]-(3-phenoxy-propyl)-amine hydrochloride]
1.7 | Clc1ccc(OCCNCCCSc2ccccc2)cc1 [Example 4f, [2-(4-Chloro-phenoxy)-ethyl]-(3-phenylsulfanyl-propyl)-amine hydrochloride]
1.2 | Cc1ccc(OCCNCCCSc2ccccc2)cc1 [Example 4g, (3-Phenylsulfanyl-propyl)-(2-p-tolyloxy-ethyl)-amine hydrochloride]
0.84 | Fc1ccc(OCCCNCCOc2ccc(Cl)cc2)cc1 [Example 4h, [2-(4-Chloro-phenoxy)-ethyl]-[3-(4-fluoro-phenoxy)-propyl]-amine hydrochloride]
4.7 | Cc1ccc(CCCNCCCOc2ccccc2)cc1 [Example 5, (3-Phenoxy-propyl)-(3-p-tolyl-propyl)-amine hydrochloride]
10.9 | COC(=O)c1ccc(OCCNCCCOc2ccccc2)cc1 [Example 6a, 4-[2-(3-Phenoxy-propylamino)-ethoxy]-benzoic acid methyl ester]
10.7 | N#Cc1ccc(OCCNCCCOc2ccccc2)cc1 [Example 6b, 4-[2-(3-Phenoxy-propylamino)-ethoxy]-benzonitrile]
103 | Cc1ccc(OCCNCCOc2ccccc2)cc1 [Example 6d, (2-Phenoxy-ethyl)-(2-p-tolyloxy-ethyl)-amine hydrochloride]
74.9 | Cc1ccc(OCCNCCOc2ccc(C)cc2)cc1 [Example 6e, Bis-(2-p-tolyloxy-ethyl)-amine hydrochloride]
5.4 | COc1ccc(OCCNCCCOc2ccccc2)cc1 [Example 9d, [2-(4-Methoxy-phenoxy)-ethyl]-(3-phenoxy-propyl)-amine hydrochloride]
3.1 | Oc1ccc(OCCNCCCOc2ccccc2)cc1 [Example 11, 4-[2-(3-Phenoxy-propylamino)-ethoxy]-phenol hydrobromide]
> 1000 | O=C(O)c1ccc(OCCNCCCOc2ccccc2)cc1 [Example 15, 4-[2-(3-Phenoxy-propylamino)-ethoxy]-benzoic acid hydrochloride]
1.3 | Cc1ccc(OCCNCC(O)COc2ccccc2)cc1 (stereo not shown) [Example 16g, 1-Phenoxy-3-(2-p-tolyloxy-ethylamino)-propan-2-ol]
2.1 | OC(CNCCOc1ccc(Cl)cc1)COc1ccccc1 (stereo not shown) [Example 16h, 1-[2-(4-Chloro-phenoxy)-ethylamino]-3-phenoxy-propan-2-ol]
6.1 | Brc1ccc(OCCCNCCOc2ccccc2)cc1 [Example 16i, [3-(4-Bromo-phenoxy)-propyl]-(2-phenoxy-ethyl)-amine hydrochloride]
